Laboratory results reported in publication PMC7960626, “Phase I study assessing the mass balance, pharmacokinetics, and excretion of [^14C]-pevonedistat, a NEDD8-activating enzyme inhibitor in patients with advanced solid tumors” (Investigational New Drugs, 2020).

Assay: Safety (TEAEs) of pevonedistat days 1, 3, 5 plus carboplatin/paclitaxel or docetaxel in 3-week cycles (part B)
Assay type: in vivo, human
Settings: for On-study deaths, patients: part B, Total (N = 7)
Procedure: This was a two-part (A and B), open-label, multicenter, mass balance, distribution, metabolism, excretion (DME) study in adult patients with advanced solid tumors. In part A, patients received a single IV infusion of [^14C]-pevonedistat 25 mg/m^2 (containing approximately 60–85 µCi, or 2.22–3.145 MBq, of total radioactivity) at a single center (Duna Medical Center, Budapest, Hungary). Patients were required to stay at the part A study site for approximately 8 days or until the discharge criteria were met, with a maximum estimated confinement period of 9–14 days. Upon completion of part A, patients had the option to participate in part B at Medical Center Hungarian Defense Forces, Budapest, Hungary. In part B, patients received treatment in 3-week cycles with either: pevonedistat 20 mg/m^2 on days 1, 3, and 5 plus carboplatin AUC5 and paclitaxel 175 mg/m^2 on day 1; or pevonedistat 25 mg/m^2 on days 1, 3, and 5 plus docetaxel 75 mg/m^2 on day 1. Treatment was administered for 12 cycles or until discontinuation criteria were met.
Blood samples were collected for total radioactivity and PK assessments in whole blood and plasma at prespecified time points (pre dose [within 1 h before the start of the pevonedistat infusion], end of infusion, then 0.5, 1, 2, 3, 4, 8, 12, 24, 48, 72, 96, 120, 144 and 168 hours post dose). Complete urinary and fecal output were collected for analysis of PK (urine) and total radioactivity (urine and feces) throughout the confinement period until discharge criteria were met. Bioanalytical assay methods are shown in the Supplementary Methods. Safety was assessed by incidence and severity of TEAEs, vital signs, physical examinations, electrocardiograms, and clinical laboratory tests, and toxicities were graded according to the National Cancer Institute Common Terminology Criteria for Adverse Events (NCI CTCAE), version 4.03. In part B, disease assessments were conducted using radiological evaluations (computed tomography [CT] scan or magnetic resonance imaging [MRI], as clinically indicated).
PK data were summarized using descriptive statistics, and the PK and mass balance parameters described in Supplementary Table S1 were calculated by non-compartmental analysis for each individual patient. Safety was assessed in all patients who received at least one dose of pevonedistat, and TEAEs were coded according to the Medical Dictionary for Regulatory Activities (MedDRA), version 20.0. Analysis of efficacy in part B was descriptive; disease response was assessed in all patients who received at least one dose of pevonedistat, had measurable disease (per entry criteria for part B), and had at least one post-baseline disease assessment. Response assessment was done by the investigator using Response Evaluation Criteria in Solid Tumors (RECIST) version 1.1. SAS version 9.4 was used for all statistical analyses.

[1] = human, in vivo, 12 3-week cycles

## NS(=O)(=O)OC[C@@H]1C[C@@H](n2ccc3c(N[C@H]4CCc5ccccc54)ncnc32)C[C@@H]1O [Pevonedistat]
human, in vivo
  Abdominal distension, All Grades: 1 (14.3) n (%)
  Abdominal distension, Grade ≥ 3: 0 n (%)
  Abdominal pain upper, All Grades: 1 (14.3) n (%)
  Abdominal pain upper, Grade ≥ 3: 0 n (%)
  Abdominal pain, All Grades: 1 (14.3) n (%)
  Abdominal pain, Grade ≥ 3: 0 n (%)
  Alopecia, All Grades: 1 (14.3) n (%)
  Alopecia, Grade ≥ 3: 0 n (%)
  Arthralgia, All Grades: 1 (14.3) n (%)
  Arthralgia, Grade ≥ 3: 0 n (%)
  Asthenia, All Grades: 3 patients (42.9%) n (%)
  Back pain, All Grades: 1 (14.3) n (%)
  Back pain, Grade ≥ 3: 0 n (%)
  Blood bilirubin increased, All Grades: 1 (14.3) n (%)
  Blood bilirubin increased, Grade ≥ 3: 0 n (%)
  Blood creatinine increased, All Grades: 1 (14.3) n (%)
  Blood creatinine increased, Grade ≥ 3: 0 n (%)
  Blood urea increased, All Grades: 1 (14.3) n (%)
  Blood urea increased, Grade ≥ 3: 0 n (%)
  Bone pain, All Grades: 1 (14.3) n (%)
  Bone pain, Grade ≥ 3: 0 n (%)
  Chest pain, All Grades: 1 (14.3) n (%)
  Chest pain, Grade ≥ 3: 0 n (%)
  Chills, All Grades: 1 (14.3) n (%)
  Chills, Grade ≥ 3: 0 n (%)
  Conjunctival hemorrhage, All Grades: 1 (14.3) n (%)
  Conjunctival hemorrhage, Grade ≥ 3: 0 n (%)
  Diarrhea, All Grades: 3 patients (42.9%) n (%)
  Dyspnea, All Grades: 1 (14.3) n (%)
  Dyspnea, Grade ≥ 3: 0 n (%)
  Edema peripheral, All Grades: 1 (14.3) n (%)
  Edema peripheral, Grade ≥ 3: 0 n (%)
  Fibrosarcoma, All Grades: 1 (14.3) n (%)
  Fibrosarcoma, Grade ≥ 3: 1 (14.3) n (%)
  General physical health deterioration, All Grades: 1 (14.3) n (%)
  General physical health deterioration, Grade ≥ 3: 1 (14.3) n (%)
  Grade ≥ 3 drug-related decreased platelet count: 1 patient
  Grade ≥ 3 drug-related increased ALT and AST: 1 patient
  Leukocytosis, All Grades: 1 (14.3) n (%)
  Leukocytosis, Grade ≥ 3: 0 n (%)
  Leukopenia, All Grades: 1 (14.3) n (%)
  Leukopenia, Grade ≥ 3: 0 n (%)
  Mueller’s mixed tumor, All Grades: 1 (14.3) n (%)
  Mueller’s mixed tumor, Grade ≥ 3: 0 n (%)
  Nausea, All Grades: 3 patients (42.9%) n (%)
  Pain, Grade ≥ 3: 0 n (%)
  Peripheral venous disease, All Grades: 1 (14.3) n (%)
  Peripheral venous disease, Grade ≥ 3: 0 n (%)
  Platelet count decreased, All Grades: 1 (14.3) n (%)
  Platelet count decreased, Grade ≥ 3: 1 (14.3) n (%)
  Pneumonia, All Grades: 1 (14.3) n (%)
  Pneumonia, Grade ≥ 3: 1 (14.3) n (%)
  Pyrexia, All Grades: 2 (28.6) n (%)
  Pyrexia, Grade ≥ 3: 0 n (%)
  Rash, All Grades: 1 (14.3) n (%)
  Rash, Grade ≥ 3: 0 n (%)
  Serious TEAEs, patients: Three patients (42.9%) n (%)
  Spinal compression fracture, All Grades: 1 (14.3) n (%)
  Spinal compression fracture, Grade ≥ 3: 0 n (%)
  Swelling, All Grades: 1 (14.3) n (%)
  Swelling, Grade ≥ 3: 0 n (%)
  TEAEs, patients: 7 n (%)
  TEAEs: Drug-related (any drug of the combination), patients: 6 patients (85.7%) n (%)
  TEAEs: Grade ≥ 3, patients: Four patients (57.1%) n (%)
  TEAEs: Grade ≥ 3 drug-related, patients: 2 n (%)
  Upper respiratory tract infection, All Grades: 1 (14.3) n (%)
  Upper respiratory tract infection, Grade ≥ 3: 0 n (%)
  Vomiting, All Grades: 4 patients (57.1%) n (%)
  Weight decreased, All Grades: 1 (14.3) n (%)
  Weight decreased, Grade ≥ 3: 0 n (%)
[1]
  ALT increased, All Grades: 2 (28.6) n (%)
  ALT increased, Grade ≥ 3: 1 (14.3) n (%)
  AST increased, All Grades: 2 (28.6) n (%)
  AST increased, Grade ≥ 3: 1 (14.3) n (%)
  Anemia, All Grades: 2 (28.6) n (%)
  Anemia, Grade ≥ 3: 0 n (%)
  Asthenia, All Grades: 3 (42.9) n (%)
  Asthenia, Grade ≥ 3: 0 n (%)
  Diarrhea, All Grades: 3 (42.9) n (%)
  Diarrhea, Grade ≥ 3: 0 n (%)
  Fatigue, All Grades: 2 (28.6) n (%)
  Fatigue, Grade ≥ 3: 0 n (%)
  Nausea, All Grades: 3 (42.9) n (%)
  Nausea, Grade ≥ 3: 0 n (%)
  Pain, All Grades: 2 (28.6) n (%)
  Serious TEAEs, patients: 3 (42.9) n (%)
  Serious TEAEs: Drug-related, patients: 0 n (%)
  Serious TEAEs: Resulting in study discontinuation, patients: 1 (14.3) n (%)
  TEAEs, patients: 7 (100.0) n (%)
  TEAEs: Drug-related (any drug of the combination), patients: 6 (85.7) n (%)
  TEAEs: Grade ≥ 3, patients: 4 (57.1) n (%)
  TEAEs: Grade ≥ 3 drug-related, patients: 2 (28.6) n (%)
  TEAEs: Resulting in study drug discontinuation, patients: 1 (14.3) n (%)
  Thrombocytopenia, All Grades: 2 (28.6) n (%)
  Thrombocytopenia, Grade ≥ 3: 0 n (%)
  Vomiting, All Grades: 4 (57.1) n (%)
  Vomiting, Grade ≥ 3: 0 n (%)
human, in vivo, po
  Oral herpes, All Grades: 1 (14.3) n (%)
  Oral herpes, Grade ≥ 3: 0 n (%)
In vivo
  Serious TEAEs: Drug-related, patients: none of which were considered related to treatment
  On-study deaths, patients: 2 (28.6) n (%)
Listed as pevonedistat
  On-study deaths, patients: Two
